Nine compounds from PMC5840523, “Assessment of a pretomanid analogue library for African trypanosomiasis: Hit-to-lead studies on 6-substituted 2-nitro-6,7-dihydro-5H-imidazo[2,1-b][1,3]thiazine 8-oxides” (Bioorganic & Medicinal Chemistry Letters, 2018) can be followed below.

≈ marks a conversion by molar mass, not a printed value. Read-outs that look alike come from different tables or passages of the source. Where only a bound is given, the exact number is not on record here.

Series [1] has as its system T. b. brucei 427. Description: T. b. brucei 427 growth inhibition (Scynexis). It counts as cell-based, Trypanosoma brucei brucei. The note with it: for Selectivity Index: L929 vs T. b. brucei; for IC50: Trypanosoma brucei, growth inhibition of T. b. brucei 427, mean ± SD.
In a further series the test system is L929 mouse fibroblasts. Description: Cytotoxicity toward L929 mouse fibroblasts (Scynexis). It counts as cell-based.
Series [2] has as its system T. b. brucei 427. Description: T. b. brucei growth inhibition (University of Antwerp). It counts as cell-based, Trypanosoma brucei brucei. The note with it: Trypanosoma brucei, T. b. brucei 427; mean of 2 to 5 determinations; read-out: IC50 T. b. bruc.
A further series relates to T. b. rhodesiense. Briefly: T. b. rhodesiense growth inhibition (University of Antwerp). It counts as cell-based, Trypanosoma brucei rhodesiense. The settings on record: Trypanosoma brucei, RHODESIENSE, mean of 2 to 5 determinations; read-out: IC50 T. b. rhod.
For a further series, the system named is Trypanosoma cruzi. Briefly: T. cruzi growth inhibition (University of Antwerp). It counts as cell-based. The settings on record: Trypanosoma cruzi, mean of 2 to 5 determinations.
A further series has as its system Leishmania infantum. Description: L. infantum growth inhibition (University of Antwerp). It counts as cell-based. The settings on record: Leishmania infantum, mean of 2 to 5 determinations.
Series [3] relates to human lung fibroblasts (MRC-5 cells). Briefly: Cytotoxicity toward MRC-5 cells (University of Antwerp). It counts as cell-based. The settings on record: Homo sapiens, MRC5, cytotoxicity toward human lung fibroblasts.
A further series has as its system MDCK-MDR1 cell monolayer. The settings on record: dog, MDCK-MDR1, 1 h, 3 µM.
A short description of a further series: in vitro. The note with it: dog, MDCK-MDR1, Permeability Papp.
The next series is described as follows: Mouse liver S9 stability. The settings on record: CD-1, mouse, mouse liver S9 subcellular fraction, half-life in mouse liver S9 fraction; read-out: Mouse S9 t1/2. It counts as in vitro ADME.
Series [4] can be described thus: Kinetic aqueous solubility in pH 7.4 PBS. It counts as physicochemical. An excerpt: Table 1 Inhibitory potency, metabolic stability, aqueous solubility, and MDCK-MDR1 cell permeability for 15 screening hits against T. b. brucei. | column: Solubility ^c / (µg/mL)
A short description of series [5]: Mouse pharmacokinetics (plasma, whole blood, brain). The note with it: male, CD-1, mouse; for bioavailability: po, from dose normalised AUClast values, read-out: F (oral bioavailability); for Vd: read-out: Vdss; for half-life: read-out: t1/2 (converted). It counts as in vivo, male CD-1 mice. As to the method: In order to determine the suitability of the more permeable hits for in vivo efficacy studies, we first measured their aqueous solubilities, and their tendencies to metabolise, following a 1 h incubation with CD-1 mouse liver S9 subcellular fractions.[14] […] This led us to probe their in vivo pharmacokinetic (PK) profiles in mice, examining concentration levels in plasma, whole blood and brain tissue following both intravenous and oral administration (Table 2; for further experimental details, see the Supporting Information). […]
Mouse Pharmacokinetics. The in-life portion of PK testing was carried out by ViviSource Laboratories, Inc., Mass achusetts, USA, and PK samples were anal ysed by Sc ynexis, Inc.
Test compounds (9, 12, 17, and 19) w er e each administered as single doses to groups of 10 male CD-1 mice by bolus intravenous injection or oral gavage. Intravenous dosing (at a nominal dose of 2 mg/kg) emplo yed a solution vehicle comprising either 20% EtOH, 20% propylene gl ycol, and 30% PEG -400 in normal saline (for powders 9, 17, and 19) or 0.5% (hydrox yprop yl)meth ylcellulose, 0.4% Tween 80, 0.5% benz yl alcohol, and 20% DMSO i n deionised water (for oil 12). […]
in 0.5% methylcellulose, 0.08% Tween 80 in water ( ex cept fo r oil 12, where the formulation additionally contained 20% DMSO). […]

A short description of series [6]: Human liver microsomal stability. Format: in vitro ADME. The note with it: pooled human liver microsomes. (Liver microsomes are vesicles of endoplasmic reticulum, rich in cytochrome P450 enzymes.)
Series [7] can be described thus: Mouse liver microsomal stability. Format: in vitro ADME. The note with it: CD-1 mouse liver microsomes.
The mark [8] stands for this setting: brain, intravenous, corrected doses 0.5, 1.1, 2.9, 2.0 mg/kg for 9, 12, 17, 19.
Where [9] appears, read: brain, oral, corrected doses 62, 50, 78, 49 mg/kg for 9, 12, 17, 19.
Where [10] appears, read: plasma, intravenous, corrected doses 0.5, 1.1, 2.9, 2.0 mg/kg for 9, 12, 17, 19.
Where [11] appears, read: plasma, oral, corrected doses 62, 50, 78, 49 mg/kg for 9, 12, 17, 19.
The mark [12] stands for this setting: whole blood, intravenous, corrected doses 0.5, 1.1, 2.9, 2.0 mg/kg for 9, 12, 17, 19.
The mark [13] stands for this setting: whole blood, oral, corrected doses 62, 50, 78, 49 mg/kg for 9, 12, 17, 19.

On to `O=[N+]([O-])c1cn2c(n1)S(=O)(=O)CC(OCc1ccc(OCc3ccccc3)cc1)C2` (stereo not shown) [Compound 10], for which the “Selectivity Index” value with T. b. brucei 427 [1] was more than 303. The IC50 with T. b. brucei 427 [1] is 0.033 ± 0.018 µg/mL (≈ 0.0768 µM); in the series with L929 mouse fibroblasts, more than 10 µg/mL; in the series with T. b. brucei 427 [2], 0.097 µM; in the series with T. b. rhodesiense, 0.027 µM; in the series on Trypanosoma cruzi, 0.35 µM; with Leishmania infantum it was 7.3 µM. This compound also showed an IC50 in series [3] of more than 64 µM. Further, the “absolute AQ” value in the series on MDCK-MDR1 cell monolayer was not below 0.3.
For the compound `O=[N+]([O-])c1cn2c(n1)OC[C@@H](OCCCc1ccc(-c3ccc(Oc4ccc(C(F)(F)F)cc4)cc3)cc1)C2` [Compound 13], in the series on T. b. brucei 427 [1], the “Selectivity Index” value is reported as more than 43 and inhibition was half-maximal at 0.23 ± 0.04 µg/mL (≈ 0.426 µM) (IC50). Also, in the series on L929 mouse fibroblasts, the IC50 is more than 10 µg/mL. Also, the “Permeability Papp” value in the series with MDCK-MDR1 cell monolayer is less than 0.08 ×10⁻⁶ cm/s. The same compound registered a Papp at 1 h, 3 µM in the series “in vitro” of less than 0.08 ×10⁻⁶ cm/s.
`O=[N+]([O-])c1cn2c(n1)OCC(COc1ccc(-c3ccc(C(F)(F)F)cc3)nc1)C2` (stereo not shown) [Compound 14]: in the series with T. b. brucei 427 [1], the “Selectivity Index” value was more than 36 and half-maximal inhibition (IC50) was put at 0.28 ± 0.11 µg/mL (≈ 0.666 µM). Besides, the IC50 with L929 mouse fibroblasts is more than 10 µg/mL. In the series on MDCK-MDR1 cell monolayer, the “Permeability Papp” value was 11.7 ×10⁻⁶ cm/s and the “absolute AQ” value was not below 0.3. This compound gave a Papp at 1 h, 3 µM in “in vitro” of less than 15 ×10⁻⁶ cm/s.
On to `O=[N+]([O-])c1cn2c(n1)OC[C@@H](OCC#Cc1ccc(-c3ccc(C(F)(F)F)cc3)cn1)C2` [Compound 16], for which, in the series on T. b. brucei 427 [1], the “Selectivity Index” value was more than 19 and 0.53 ± 0.23 µg/mL (≈ 1.19 µM) corresponded to half-maximal inhibition (IC50). Besides, the IC50 in the series with L929 mouse fibroblasts was more than 10 µg/mL. Besides, the “absolute AQ” value in the series with MDCK-MDR1 cell monolayer was not below 0.3.
Taken in the same sequence, the figures for `O=[N+]([O-])c1cn2c(n1)OCC(COc1ccc(-c3ccc(OC(F)(F)F)cc3)nc1)C2` (stereo not shown) [Compound 18] were more than 12, 0.83 ± 0.41 µg/mL (≈ 1.9 µM), more than 10 µg/mL and not below 0.3.
`O=[N+]([O-])c1cn2c(n1)S(=O)(=O)CC(OCc1ccc(OC(F)(F)F)cc1)C2` (stereo not shown) [Compound 19]: the “Selectivity Index” value in the series with T. b. brucei 427 [1] is more than 11. Besides, the “weaker potency vs 12 (fold)” value with T. b. brucei 427 [1] (T. b. brucei) worked out at 5.6 fold. Besides, the IC50 in the series with T. b. brucei 427 [1] was 0.9 ± 0.4 µg/mL (≈ 2.21 µM); with L929 mouse fibroblasts, more than 10 µg/mL; with T. b. brucei 427 [2], 1.1 µM; with T. b. rhodesiense it was 0.94 µM; with Trypanosoma cruzi, 1.6 µM; with Leishmania infantum, more than 64 µM. The same compound returned an IC50 in series [3] of more than 64 µM. Further, the half-life in “Mouse liver S9 stability” is 4.97 h; in series [5] (setting [8]), 14 h; in series [5] (setting [9]) it was 3 h; in series [5] (setting [10]), 2.5 h; in [5] (setting [11]), 2.7 h; in series [5] (setting [12]), 5.9 h. Besides, the half-life in [5] (setting [13]) is 3.3 h. In addition, the solubility in series [4] was determined as 10 µg/mL (≈ 24.6 µM). The bioavailability in [5] (brain) came to 43%; in series [5] (plasma), 42%; in [5] (whole blood) it was 37%. Further, the exposure AUC(0-t) in series [5] (setting [8]) was 1770 ng·h/mL; in [5] (setting [9]), 18800 ng·h/mL; in [5] (setting [10]), 1800 ng·h/mL; in series [5] (setting [11]), 18700 ng·h/mL; in series [5] (setting [12]), 2600 ng·h/mL; in [5] (setting [13]), 23700 ng·h/mL. Moreover, the clearance was 8.5 mL/min/kg in series [5] (setting [8]), 16.7 mL/min/kg in series [5] (setting [10]) and 11.5 mL/min/kg in series [5] (setting [12]). In addition, the Vd is 9.1 L/kg in series [5] (setting [8]), 3.6 L/kg in series [5] (setting [10]) and 2.8 L/kg in series [5] (setting [12]). Moreover, the Cmax in series [5] (setting [9]) worked out at 2400 ng/mL; in [5] (setting [11]) it was 2300 ng/mL; in series [5] (setting [13]) it was 3000 ng/mL. Moreover, the Tmax in series [5] (setting [9]) was found to be 4 h; in series [5] (setting [11]), 2 h; in series [5] (setting [13]), 2 h. The same compound returned a Papp at 1 h, 3 µM in the series “in vitro” of 62.4 ×10⁻⁶ cm/s.
As for `O=[N+]([O-])c1cn2c(n1)[S@@+]([O-])C[C@@H](OCc1ccc(OC(F)(F)F)cc1)C2` [Compound 25], the IC50 in the series with T. b. brucei 427 [1] was 2.8 ± 0.4 µg/mL (≈ 7.16 µM); in the series with L929 mouse fibroblasts it was more than 10 µg/mL; in the series on T. b. brucei 427 [2], 5.6 µM; in the series on T. b. rhodesiense, 1.9 µM; with Trypanosoma cruzi, 13 µM; with Leishmania infantum, more than 64 µM. In series [3], this compound had an IC50 of more than 64 µM. The fraction remaining at 1 h in series [6] and in series [7] was 93% in each case.
For `O=[N+]([O-])c1cn2c(n1)[S@@+]([O-])C[C@H](OCc1ccc(OC(F)(F)F)cc1)C2` [Compound 26], the IC50 in the series with T. b. brucei 427 [1] was more than 5 µg/mL; in the series with L929 mouse fibroblasts, more than 10 µg/mL; with T. b. brucei 427 [2], 34 µM; with T. b. rhodesiense it was 7.3 µM; with Trypanosoma cruzi, 6.5 µM; in the series on Leishmania infantum it was 41 µM. In series [3], the IC50 was more than 64 µM. Besides, the amount remaining at 1 h is 91% in series [6] and 26% in series [7].
Take `O=[N+]([O-])c1cn2c(n1)[S@+]([O-])C[C@H](OCc1ccc(OC(F)(F)F)cc1)C2` [Compound 27]: the IC50 was more than 5 µg/mL in the series with T. b. brucei 427 [1]; more than 10 µg/mL in the series on L929 mouse fibroblasts; 16 µM in the series with T. b. brucei 427 [2]; 4.3 µM in the series on T. b. rhodesiense; 13 µM in the series on Trypanosoma cruzi; 48 µM in the series on Leishmania infantum. This compound displayed an IC50 in series [3] of more than 64 µM. Moreover, the amount remaining at 1 h in [6] was 88%; in [7] it was 89%.

The IC50 is the concentration needed to halve the response being measured. What is called Papp is the rate of passage across a membrane or cell layer, normalised by area and donor concentration. Low values mean slow passage, high ones fast passage. By solubility is commonly meant how much of the substance goes into solution per volume. Read a high solubility as a readily soluble substance. As usually defined, the bioavailability is the share of a dose that reaches the circulation, judged against a reference dose that is usually intravenous. The AUC(0-t) is exposure summed from dosing to a finite time, without extrapolation to infinity. The clearance is the volume of plasma or blood freed of the substance per unit of time. A lower clearance goes with a low capacity for elimination. For orientation: Cmax means the peak of the concentration-time curve. For orientation: Tmax means the time at which the peak concentration occurs. For orientation: share remaining means the share of the starting amount still present when the sample was taken.
